Reference: patent US10206902B2, “Mono- or di-substituted indoles as dengue viral replication inhibitors” (priority 2014, dated 2019)

Columns and labels:
DENV-4 strain EDEN = test: Tetravalent RT-qPCR assay Protocol A, serotype 4 EDEN; type: cell-based; details: Dengue virus, DENV4, 72 h, RT-qPCR serotype 4 EDEN, Vero cells, day 3
Experimental: The antiviral activity of the compounds of the invention was tested against DENV-1 strain TC974#666 (NCPV), DENV-2 strain 16681, DENV-3 strain H87 (NCPV) and DENV-4 strains H241 (NCPV) and EDEN (SG/06K2270DK1/2005; GenBank accession number QG398256) in a RT-qPCR assay. Therefore, Vero cells were infected with either DENV-1, or -2, or -3, or -4 in the presence or absence of test compounds. At day 3 post-infection, the cells were lysed and cell lysates were used to prepare cDNA of both a viral target (the 3′UTR of DENV; table 2) and a cellular reference gene (β-actin, table 2). Subsequently, a duplex real time PCR was performed on a Lightcycler480 instrument. The generated Cp value is inversely proportional to the amount of RNA expression of these targets. Inhibition of DENV replication by a test compound result in a shift of Cp's for the 3′UTR gene. On the other hand, if a test compound is toxic to the cells, a similar effect on β-actin expression will be observed. The comparative ΔΔCp method is used to calculate EC50, which is based on the relative gene expression of the target gene (3′UTR) normalized with the cellular housekeeping gene (β-actin). In addition, CC50 values were determined based on the Cp values acquired for the housekeeping gene β-actin.
The culture medium consisted of minimal essential medium supplemented with 2% of heat-inactivated fetal calf serum, 0.04% gentamycin (50 mg/mL) and 2 mM of L-glutamine. Vero cells, obtained from ECACC, were suspended in culture medium and 75 μL/well was added in 96-well plates (10000 cells/well), which already contain the antiviral compounds. Typically, these plates contain a 4-fold serial dilution of 9 dilution steps of the test compound at 200 times the final concentration in 100% DMSO (500 nL; final concentration range: 25 μM-0.00038 μM). In addition, each plate contains wells which are assigned as virus controls (containing cells and virus in the absence of compound) and cell controls (containing cells in the absence of virus and compound). Once the cells were added in the plates, the plates were incubated in a fully humidified incubator (37° C., 5% CO2) until the next day. Then, DENV-1 strain TC974#666, DENV-2 strain 16681, DENV-3 strain H87 or DENV-4 strains H241 or EDEN were added. […] In parallel, 25 μL of culture medium was added to the cell controls. Next, the plates were incubated for 3 days in a fully humidified incubator (37° C., 5% CO2). After 3 days, the supernatant was removed from the wells and the cells were washed twice with ice-cold PBS (˜100 μL). The cell pellets within the 96-well plates were stored at −80° C. for at least 1 day. Next, RNA was extracted using the Cells-to-CT™ lysis kit, according to the manufacture's guideline (Applied Biosystems). The cell lysates can be stored at −80° C. or immediately used in the reverse transcription step. In preparation of the reverse transcription step, mix A (table 3A) was prepared and 7.57 μL/well was dispensed in a 96-well plate. After addition of 5 μL of the cell lysates, a five minute denaturation step at 75° C. was performed (table 3B). Afterwards, 7.43 μL of mix B was added (table 3C) and the reverse transcription step was initiated (table 3D) to generate cDNA.
Finally, a RT-qPCR mix was prepared, mix C (table 4A), dispensed in 96-well LightCycler qPCR plates to which 3 μL of cDNA was added and the qPCR was performed according to the conditions in table 4B on a LightCycler 480. Using the LightCycler software and an in-house LIMS system, dose response curves for each compound were calculated and the half maximal effective concentration (EC50) and the half maximal cytotoxic concentration (CO50) were determined (Tables 6-9).

[1] = system: DENV-3 strain H87 prototype; test: Tetravalent RT-qPCR assay Protocol B, serotype 3; type: cell-based; details: Dengue virus, DENV3, 168 h, RT-qPCR serotype 3 H87, Vero cells, 7 days
Experimental: Vero cells (4×10^4) were seeded in 96-well plates. […] Following a 2 hour incubation period, the cell monolayer was washed 3 times with assay medium to remove residual, non-adsorbed virus and cultures were further incubated for either 4 days (DENV-2 NGC-Tongalike) or 7 days (DENV-1 Djibouti strain D1/H/IMTSSA/98/606, DENV-3 strain H87 prototype, DENV-4 strain H241′) in the presence of the inhibitor. Supernatant was harvested and viral RNA load was determined by real-time quantitative RT-PCR. The 50% effective concentration (EC50), which is defined as the compound concentration that is required to inhibit viral RNA replication by 50%, was determined using logarithmic interpolation (Tables 7 and 8). RNA was isolated from 100 μL supernatant with the NucleoSpin 96 Virus kit (Filter Service, Duren, Germany) as described by the manufacturer. The sequences of the TaqMan primers (DENV-For, DENV-Rev; Table 5) and TaqMan probes (DENV-Probe Table 5) were selected from non-structural gene 3 (NS3) or NS5, of the respective flaviviruses using Primer Express software (version 2.0; Applied Biosystems, Lennik, Belgium). The TaqMan probe was fluorescently labelled with 6-carboxyfluorescein (FAM) at the 5′ end as the reporter dye, and with minor groove binder (MGB) at the 3′ end as the quencher (Table 5). One-step, quantitative RT-PCR was performed in a total volume of 25 μL, containing 13.9375 μL H2O, 6.25 μL master mix (Eurogentec, Seraing, Belgium), 0.375 μL forward primer, 0.375 μL reverse primer, 1 μL probe, 0.0625 μL reverse transcriptase (Eurogentec) and 3 μL sample. RT-PCR was performed using the ABI 7500 Fast Real-Time PCR System (Applied Biosystems, Branchburg, N.J., USA) using the following conditions: 30 min at 48° C. and 10 min at 95° C., followed by 40 cycles of 15 s at 95° C. and 1 min at 60° C. The data was analyzed using the ABI PRISM 7500 SDS software (version 1.3.1; Applied Biosystems). For absolute quantification, standard curves were generated using 10-fold dilutions of template preparations of known concentrations.

Row | Structure (SMILES) | EC50 (DENV-4 strain EDEN) [µM] | EC50 [1] [µM]
1 | COc1cc(NC(C(=O)c2c[nH]c3cc(Cl)ccc23)c2ccc(F)cc2OC)cc(OCCO)c1 (single isomer, unassigned) [Compound 4A, 1-(6-chloro-1H-indol-3-yl)-2-(4-fluoro-2-methoxyphenyl)-2-((3-(2-hydroxyethoxy)-5-methoxyphenyl)amino)ethanone] | 0.016 | 0.016
2 | COc1cc(NC(C(=O)c2c[nH]c3c(F)cc(C)cc23)c2ccc(F)cc2OC)cc(OCCO)c1 (single isomer, unassigned) [Compound 12B, 2-(4-fluoro-2-methoxyphenyl)-1-(7-fluoro-5-methyl-1H-indol-3-yl)-2-((3-(2-hydroxyethoxy)-5-methoxyphenyl)amino)ethanone] | 0.017 | 0.077
3 | COc1cc(NC(C(=O)c2c[nH]c3cc(OC)c(F)cc23)c2ccc(F)cc2OC)cc(OCCO)c1 (single isomer, unassigned) [Compound 7A, 2-(4-fluoro-2-methoxyphenyl)-1-(5-fluoro-6-methoxy-1H-indol-3-yl)-2-((3-(2-hydroxyethoxy)-5-methoxyphenyl)amino)ethanone] | 0.023 | 0.041
4 | COc1cc(NC(C(=O)c2c[nH]c3c(Cl)c(OC)ccc23)c2ccc(F)cc2OC)cc(OCCO)c1 (single isomer, unassigned) [Compound 8A, 1-(7-chloro-6-methoxy-1H-indol-3-yl)-2-(4-fluoro-2-methoxyphenyl)-2-((3-(2-hydroxyethoxy)-5-methoxyphenyl)amino)ethanone] | 0.021 | 0.029
5 | COc1cc(NC(C(=O)c2c[nH]c3c(C)c(F)ccc23)c2ccc(F)cc2OC)cc(OCCO)c1 (single isomer, unassigned) [Compound 2B, 2-(4-fluoro-2-methoxyphenyl)-1-(6-fluoro-7-methyl-1H-indol-3-yl)-2-((3-(2-hydroxyethoxy)-5-methoxyphenyl)amino)ethanone] | 0.011 | 0.042
6 | COc1cc(NC(C(=O)c2c[nH]c3c(F)c(F)ccc23)c2ccc(F)cc2OC)cc(OCCO)c1 (single isomer, unassigned) [Compound 5B, 1-(6,7-difluoro-1H-indol-3-yl)-2-(4-fluoro-2-methoxyphenyl)-2-((3-(2-hydroxyethoxy)-5-methoxyphenyl)amino)ethanone] | 0.024 | 0.05
7 | COc1cc(NC(C(=O)c2c[nH]c3c(C)c(OC)ccc23)c2ccc(F)cc2OC)cc(OCCO)c1 (single isomer, unassigned) [Compound 11A, 2-(4-fluoro-2-methoxyphenyl)-2-((3-(2-hydroxyethoxy)-5-methoxyphenyl)amino)-1-(6-methoxy-7-methyl-1H-indol-3-yl)ethanone] | 0.015 | 0.04
8 | COc1cc(NC(C(=O)c2c[nH]c3cc(OC)c(C)cc23)c2ccc(F)cc2OC)cc(OCCO)c1 (single isomer, unassigned) [Compound 6A, 2-(4-fluoro-2-methoxyphenyl)-2-((3-(2-hydroxyethoxy)-5-methoxyphenyl)amino)-1-(6-methoxy-5-methyl-1H-indol-3-yl)ethanone] | 0.013 | 0.02
9 | COc1cc(NC(C(=O)c2c[nH]c3c(C)c(Cl)ccc23)c2ccc(F)cc2OC)cc(OCCO)c1 (single isomer, unassigned) [Compound 3A, 1-(6-chloro-7-methyl-1H-indol-3-yl)-2-(4-fluoro-2-methoxyphenyl)-2-((3-(2-hydroxyethoxy)-5-methoxyphenyl)amino)ethanone] | 0.016 | 0.032
10 | COc1cc(NC(C(=O)c2c[nH]c3cc(F)ccc23)c2ccc(F)cc2OC)cc(OCCO)c1 (single isomer, unassigned) [Compound 1A, 1-(6-fluoro-1H-indol-3-yl)-2-(4-fluoro-2-methoxyphenyl)-2-((3-(2-hydroxyethoxy)-5-methoxyphenyl)amino)ethanone] | 0.012 | 0.053
11 | COc1cc(NC(C(=O)c2c[nH]c3cc(F)c(F)cc23)c2ccc(F)cc2OC)cc(OCCO)c1 (single isomer, unassigned) [Compound 10B, 1-(5,6-difluoro-1H-indol-3-yl)-2-(4-fluoro-2-methoxy-phenyl)-2-((3-(2-hydroxyethoxy)-5-methoxyphenyl)amino)ethanone] | 0.02 | < 0.022
12 | COc1cc(NC(C(=O)c2c[nH]c3c(C)cc(F)cc23)c2ccc(F)cc2OC)cc(OCCO)c1 (single isomer, unassigned) [Compound 9B, 2-(4-fluoro-2-methoxyphenyl)-1-(5-fluoro-7-methyl-1H-indol-3-yl)-2-((3-(2-hydroxyethoxy)-5-methoxyphenyl)amino)ethanone] | 0.02 | 0.066
